Measurements from PubChem BioAssay (NCI).
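Results reflect a 48-hour exposure of cells in 96-well plates to compound at five concentrations. GI50 = concentration required for 50% inhibition of growth. The concentration for full growth arrest is given as TGI.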 Peptide text beside a SMILES is read from it. * marks the point of attachment. X26 = Clc1c(Cl)c(Cl)c(O*)c(Cl)c1Cl; Boc = CC(C)(C)OC(=O)*; OBn = c1ccc(CO*)cc1; Bn = c1ccc(C*)cc1

Tests used:
Assay in all cases: inhibition of tumour cell growth, NCI panel, 48 h
HL-60(TB) leukemia = test system: HL-60(TB) leukemia
SN12C renal = test system: SN12C renal
SW-620 colon = test system: SW-620 colon
ACHN renal = test system: ACHN renal
MDA-MB-231 breast = test system: MDA-MB-231 breast
OVCAR-8 ovarian = test system: OVCAR-8 ovarian
EKVX NSCLC = test system: EKVX NSCLC
K-562 leukemia = test system: K-562 leukemia
SF-539 CNS = test system: SF-539 CNS
NCI-H522 lung = test system: NCI-H522 lung

## N#Cc1nc(C2CCC(=O)O2)oc1N (stereo not drawn)
HL-60(TB) leukemia
  TGI: > 100 µM
SN12C renal
  TGI: > 100 µM
SW-620 colon
  TGI: > 100 µM
ACHN renal
  TGI: > 100 µM
MDA-MB-231 breast
  TGI: > 100 µM
OVCAR-8 ovarian
  TGI: > 100 µM
EKVX NSCLC
  TGI: > 100 µM
K-562 leukemia
  TGI: > 100 µM
SF-539 CNS
  TGI: > 100 µM

## CC(O)CNC1=CC(=O)C(=O)c2ccccc21 (stereo not drawn)
HL-60(TB) leukemia
  TGI: 84.4 µM
SN12C renal
  TGI: 34.9 µM
SW-620 colon
  TGI: 40.1 µM
ACHN renal
  TGI: 35.6 µM
MDA-MB-231 breast
  TGI: 73.6 µM
EKVX NSCLC
  TGI: 40.2 µM
NCI-H522 lung
  TGI: 41.8 µM
K-562 leukemia
  TGI: > 100 µM
SF-539 CNS
  TGI: 38.5 µM

## O=c1c(-c2ccccc2)c(SCCN2CCCCCC2)n(-c2ccccc2)c(=S)n1-c1ccccc1
HL-60(TB) leukemia
  TGI: 46.9 µM
SW-620 colon
  TGI: > 100 µM
ACHN renal
  TGI: > 100 µM
OVCAR-8 ovarian
  TGI: > 100 µM
EKVX NSCLC
  TGI: 35.7 µM
NCI-H522 lung
  TGI: > 100 µM
K-562 leukemia
  TGI: 93.9 µM
SF-539 CNS
  TGI: > 100 µM

## C=C(C)[C@H]1CC(=O)/C(C)=C\CC/C(C)=C/CC[C@@]2(C)O[C@@H]2C1
HL-60(TB) leukemia
  TGI: 66.2 µM
SN12C renal
  TGI: 42.7 µM
SW-620 colon
  TGI: > 100 µM
ACHN renal
  TGI: 87.3 µM
MDA-MB-231 breast
  TGI: > 100 µM
OVCAR-8 ovarian
  TGI: > 100 µM
K-562 leukemia
  TGI: > 100 µM
SF-539 CNS
  TGI: 42.2 µM

## CC(C)CC(NC(=O)C(CCC(=O)OCc1ccccc1)NC(=O)OC(C)(C)C)C(=O)NC(COCc1ccccc1)C(=O)NC(Cc1ccccc1)C(=O)Oc1c(Cl)c(Cl)c(Cl)c(Cl)c1Cl (stereo not drawn) (Boc-E(OBn)LS(Bn)F-X26; configuration not given here)
SN12C renal
  TGI: 90.5 µM
SW-620 colon
  TGI: > 100 µM
ACHN renal
  TGI: 57.8 µM
MDA-MB-231 breast
  TGI: 34.5 µM
OVCAR-8 ovarian
  TGI: 65.5 µM
EKVX NSCLC
  TGI: 96.2 µM
NCI-H522 lung
  TGI: 51.4 µM

## COc1ccc(C2SC(N)=Nc3c2c(C)nn3C(=O)c2ccc(Cl)cc2)cc1OC (stereo not drawn)
HL-60(TB) leukemia
  TGI: > 10 µM
SN12C renal
  TGI: > 10 µM
SW-620 colon
  TGI: > 10 µM
ACHN renal
  TGI: > 10 µM
MDA-MB-231 breast
  TGI: > 10 µM
OVCAR-8 ovarian
  TGI: > 10 µM
EKVX NSCLC
  TGI: > 10 µM
NCI-H522 lung
  TGI: > 10 µM
K-562 leukemia
  TGI: > 10 µM
SF-539 CNS
  TGI: > 10 µM

## C#CCOCC12C=CC(O1)C1COC(=O)C12 (stereo not drawn)
HL-60(TB) leukemia
  TGI: > 100 µM
SN12C renal
  TGI: > 100 µM
SW-620 colon
  TGI: > 100 µM
ACHN renal
  TGI: > 100 µM
MDA-MB-231 breast
  TGI: > 100 µM
OVCAR-8 ovarian
  TGI: > 100 µM
EKVX NSCLC
  TGI: > 100 µM
NCI-H522 lung
  TGI: > 100 µM
K-562 leukemia
  TGI: > 100 µM
SF-539 CNS
  TGI: > 100 µM

## Oc1c(OCc2nnc(CCCCCCCCc3nnc(COc4ccc5ccccc5c4O)o3)o2)ccc2ccccc12
SN12C renal
  TGI: > 100 µM
SW-620 colon
  TGI: > 100 µM
ACHN renal
  TGI: > 100 µM
MDA-MB-231 breast
  TGI: > 100 µM
EKVX NSCLC
  TGI: > 100 µM
NCI-H522 lung
  TGI: > 100 µM
K-562 leukemia
  TGI: > 100 µM

## CCN1CCN(Cc2ccc(NC(=O)Nc3ccc(-n4ccc5c(NC(=O)c6ccccc6)nccc54)cc3)cc2C(F)(F)F)CC1
HL-60(TB) leukemia
  GI50: 1.71 µM
  TGI: 7.91 µM
SN12C renal
  GI50: 3.17 µM
  TGI: > 20.7 µM
SW-620 colon
  GI50: 0.513 µM
  TGI: 1.7 µM
ACHN renal
  GI50: 0.907 µM
  TGI: 2.11 µM
OVCAR-8 ovarian
  GI50: 0.968 µM
  TGI: 4.92 µM
K-562 leukemia
  GI50: 0.0653 µM
  TGI: 1.52 µM

## O=P(OCc1ccccc1)(OCc1ccccc1)C(O)/C=C/c1ccccc1 (stereo not drawn)
HL-60(TB) leukemia
  TGI: 44.3 µM
SN12C renal
  TGI: 39 µM
SW-620 colon
  TGI: 68.3 µM
ACHN renal
  TGI: 95.9 µM
MDA-MB-231 breast
  TGI: 56.4 µM
OVCAR-8 ovarian
  TGI: 55.9 µM
EKVX NSCLC
  TGI: 95.6 µM
NCI-H522 lung
  TGI: 57.7 µM
K-562 leukemia
  TGI: > 100 µM

## CN(C)CCCNc1cc(O)c2c(c1O)C(=O)c1ccccc1C2=O
SN12C renal
  TGI: 16.5 µM
SW-620 colon
  TGI: 21.7 µM
ACHN renal
  TGI: 27.5 µM
MDA-MB-231 breast
  TGI: 27.6 µM
OVCAR-8 ovarian
  TGI: 30.5 µM
EKVX NSCLC
  TGI: 31.1 µM
NCI-H522 lung
  TGI: 40.7 µM
K-562 leukemia
  TGI: 21.6 µM
SF-539 CNS
  TGI: 26.7 µM

## Cc1nnc2n1-c1ccccc1N(Cc1ccccc1)CC2
HL-60(TB) leukemia
  TGI: 60 µM
SN12C renal
  TGI: > 100 µM
SW-620 colon
  TGI: > 100 µM
ACHN renal
  TGI: > 100 µM
MDA-MB-231 breast
  TGI: > 100 µM
OVCAR-8 ovarian
  TGI: > 100 µM
EKVX NSCLC
  TGI: > 100 µM
K-562 leukemia
  TGI: > 100 µM
SF-539 CNS
  TGI: > 100 µM

## O=C1NC(=S)NC(=O)C1C(c1ccc(Cl)cc1)C1C(=O)NC(=S)NC1=O
HL-60(TB) leukemia
  TGI: > 100 µM
SN12C renal
  TGI: > 100 µM
SW-620 colon
  TGI: > 100 µM
ACHN renal
  TGI: > 100 µM
MDA-MB-231 breast
  TGI: > 100 µM
OVCAR-8 ovarian
  TGI: > 100 µM
EKVX NSCLC
  TGI: > 100 µM
NCI-H522 lung
  TGI: > 100 µM
K-562 leukemia
  TGI: > 100 µM

## Cc1ccc(C(=O)Cc2nc3c([nH]c2=O)c(C)nn3-c2ccccc2)c(C)c1
HL-60(TB) leukemia
  TGI: > 10 µM
SN12C renal
  TGI: > 10 µM
SW-620 colon
  TGI: > 10 µM
ACHN renal
  TGI: > 10 µM
MDA-MB-231 breast
  TGI: > 10 µM
OVCAR-8 ovarian
  TGI: > 10 µM
NCI-H522 lung
  TGI: > 10 µM
K-562 leukemia
  TGI: > 10 µM
SF-539 CNS
  TGI: > 10 µM

## O=[N+]([O-])/C(Cl)=C(/C(Cl)=C(Cl)Cl)N1CCCCC1
HL-60(TB) leukemia
  TGI: 4.83 µM
SN12C renal
  TGI: 27.4 µM
ACHN renal
  TGI: 30.7 µM
MDA-MB-231 breast
  TGI: 41.6 µM
OVCAR-8 ovarian
  TGI: 22.2 µM
EKVX NSCLC
  TGI: 39.7 µM
NCI-H522 lung
  TGI: 23.2 µM
K-562 leukemia
  TGI: 25.3 µM
SF-539 CNS
  TGI: 31.9 µM

## Cc1cn(CCCCCOC(=O)NC(CCCNC(N)=O)C(=O)O)c(=O)[nH]c1=O (stereo not drawn)
HL-60(TB) leukemia
  TGI: > 100 µM
SN12C renal
  TGI: > 100 µM
SW-620 colon
  TGI: > 100 µM
ACHN renal
  TGI: > 100 µM
MDA-MB-231 breast
  TGI: > 100 µM
OVCAR-8 ovarian
  TGI: > 100 µM
EKVX NSCLC
  TGI: > 100 µM
K-562 leukemia
  TGI: > 100 µM
SF-539 CNS
  TGI: > 100 µM

## S=c1[nH]nc(Cn2c3ccc(Br)cc3c3nc4ccccc4nc32)n1C1CCCCC1
SN12C renal
  TGI: > 56.6 µM
SW-620 colon
  TGI: > 100 µM
ACHN renal
  TGI: 98.9 µM
MDA-MB-231 breast
  TGI: > 75.2 µM
OVCAR-8 ovarian
  TGI: > 67.5 µM
EKVX NSCLC
  TGI: > 100 µM
NCI-H522 lung
  TGI: 67.4 µM
K-562 leukemia
  TGI: > 100 µM
SF-539 CNS
  TGI: 42.1 µM

## COc1ccc(OC)c(NC(=O)C(=O)C(C(=O)c2ccccc2F)C2OC(=O)c3ccccc32)c1 (stereo not drawn)
HL-60(TB) leukemia
  TGI: > 100 µM
SN12C renal
  TGI: > 100 µM
SW-620 colon
  TGI: > 100 µM
ACHN renal
  TGI: > 100 µM
OVCAR-8 ovarian
  TGI: > 100 µM
EKVX NSCLC
  TGI: > 100 µM
NCI-H522 lung
  TGI: 71.5 µM
K-562 leukemia
  TGI: > 100 µM
SF-539 CNS
  TGI: 82.2 µM

## CC(C)=CCC12Cc3ccc(O)cc3C(C(C)CN1)C2C (stereo not drawn)
HL-60(TB) leukemia
  TGI: > 100 µM
SN12C renal
  TGI: > 100 µM
SW-620 colon
  TGI: > 100 µM
ACHN renal
  TGI: > 100 µM
MDA-MB-231 breast
  TGI: > 100 µM
OVCAR-8 ovarian
  TGI: > 100 µM
EKVX NSCLC
  TGI: > 100 µM
K-562 leukemia
  TGI: > 100 µM
SF-539 CNS
  TGI: > 100 µM

## COC(=O)C1=C(C(=O)OC)SC(=C2SC3=C(SC(=C4SCCS4)S3)S2)S1
HL-60(TB) leukemia
  TGI: > 100 µM
SN12C renal
  TGI: > 100 µM
SW-620 colon
  TGI: > 100 µM
ACHN renal
  TGI: > 100 µM
MDA-MB-231 breast
  TGI: > 100 µM
OVCAR-8 ovarian
  TGI: > 100 µM
EKVX NSCLC
  TGI: > 100 µM
NCI-H522 lung
  TGI: > 100 µM
K-562 leukemia
  TGI: > 100 µM

## Cc1cccc(NS(=O)(=O)c2ccc(N=Nc3c(O)c(C(=O)O)cc4ccccc34)cc2)n1
HL-60(TB) leukemia
  TGI: > 100 µM
SW-620 colon
  TGI: > 100 µM
ACHN renal
  TGI: > 100 µM
MDA-MB-231 breast
  TGI: > 100 µM
OVCAR-8 ovarian
  TGI: > 100 µM
EKVX NSCLC
  TGI: > 100 µM
NCI-H522 lung
  TGI: > 100 µM
K-562 leukemia
  TGI: > 100 µM
SF-539 CNS
  TGI: > 100 µM

## CC(=O)OC1CC2(O)C(CCC3(C)C(c4ccc(=O)oc4)CCC32O)C2(C)C1=CC(O)C1OC12 (stereo not drawn)
HL-60(TB) leukemia
  TGI: 1.28 µM
SN12C renal
  TGI: 0.882 µM
SW-620 colon
  TGI: 0.144 µM
OVCAR-8 ovarian
  TGI: 0.258 µM
EKVX NSCLC
  TGI: 0.157 µM
NCI-H522 lung
  TGI: 0.0784 µM
K-562 leukemia
  TGI: 0.381 µM
SF-539 CNS
  TGI: 0.116 µM

## C[C@H](c1ccccc1)N1C(=O)[C@@H](OCc2ccccc2)[C@H]1[C@H](COC(=O)COCc1ccccc1)OCc1ccccc1
SN12C renal
  TGI: > 100 µM
SW-620 colon
  TGI: > 100 µM
ACHN renal
  TGI: > 100 µM
MDA-MB-231 breast
  TGI: > 100 µM
EKVX NSCLC
  TGI: > 100 µM
NCI-H522 lung
  TGI: > 100 µM
K-562 leukemia
  TGI: > 100 µM
